Experimental data taken from the NIST ThermoML archive (doi:10.1016/j.jct.2015.04.034).

Columns and labels:
[1] = 298.15 K; 101.33 kPa; Liquid; Vibrating tube method
[2] = excess molar enthalpy (molar enthalpy of mixing); xn = mol fraction of the nth substance listed; conditions: 101 kPa, Liquid, Flow calorimetry

CC1(C)C(=O)[C@]2(C)CC[C@H]1C2 [(-)-fenchone]
Conditions	mass density [kg/m3]
[1]	940.67

CC(C)O [propan-2-ol]
Conditions	mass density [kg/m3]
[1]	781.2

CC1(C)C(=O)[C@]2(C)CC[C@H]1C2 [(-)-fenchone] + CCCO
excess molar enthalpy [kcal/mol], [2]
Conditions	283.15 K	298.15 K	313.15 K	328.15 K
x1 = 0.049	0.0459	0.0526	0.0578	0.0612
x1 = 0.098	0.0875	0.1	0.11	0.117
x1 = 0.193	0.154	0.175	0.191	0.204
x1 = 0.292	0.2	0.228	0.251	0.269
x1 = 0.397	0.232	0.267	0.293	0.315
x1 = 0.493	0.243	0.28	0.309	0.331
x1 = 0.592	0.239	0.277	0.305	0.326
x1 = 0.691	0.218	0.251	0.275	0.293
x1 = 0.805	0.167	0.19	0.206	0.217
x1 = 0.897	0.0975	0.114	0.125	0.131
x1 = 0.951	0.05	0.0574	0.0626	0.0657

CC1(C)C(=O)[C@]2(C)CC[C@H]1C2 [(-)-fenchone] + CC(C)O
excess molar enthalpy [kcal/mol], [2]
Conditions	283.15 K	298.15 K	313.15 K	328.15 K
x1 = 0.049	0.0619	0.0681	0.0727	0.0739
x1 = 0.097	0.117	0.13	0.138	0.14
x1 = 0.192	0.204	0.222	0.235	0.241
x1 = 0.292	0.26	0.287	0.306	0.316
x1 = 0.392	0.292	0.326	0.349	0.362
x1 = 0.499	0.302	0.338	0.364	0.378
x1 = 0.598	0.294	0.328	0.354	0.367
x1 = 0.697	0.263	0.294	0.316	0.326
x1 = 0.792	0.212	0.234	0.251	0.257
x1 = 0.899	0.116	0.13	0.141	0.144
x1 = 0.947	0.066	0.0743	0.0796	0.0817

CCCO [propan-1-ol]
Conditions	mass density [kg/m3]
[1]	799.56
